The values below come from ChEMBL document CHEMBL1201862, “PubChem BioAssay data set” (2004).

Some test systems named below: A549; CCRF-CEM; COLO 205; HCT-15; HL-60; HOP-62; HOP-92; K562; KM12; M14; NCI-H522; OVCAR-5; RPMI-8226; RXF 393; SF-268; SF-295; SF-539; SN12C; SW-620; U-251.
Assay in all cases: NCI-60 cell line screen, 48 h

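Grown in 96-well plates, cells were treated for 48 hours with each compound at five concentrations. Insufficient inhibition: endpoint recorded as highest concentration tested. The concentration for 50% growth inhibition is given as GI50.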 The source made the active and inactive calls. No stated cut-off is given here; in the data, active = GI50 up to about 1.1 µM and inactive = higher.

With `CC(=O)OCC1OC(n2cc(F)c(=O)[nH]c2=O)C(OC(C)=O)C1OC(C)=O` (stereo not given), the GI50 is 16.7 µM (inactive) in the assay with A549; 6 µM (inactive) in the assay with CCRF-CEM; 12.2 µM (inactive) with COLO 205; 13.7 µM in the assay on HCT-15; 27.9 µM (inactive) in the assay with HL-60; 44 µM (inactive) in the assay on HOP-62. Further, the GI50 is 16.7 µM (inactive) with HOP-92; 9.27 µM (inactive) with K562; 8.41 µM (inactive) in the assay on KM12; 48.9 µM (inactive) in the assay with M14; 16.6 µM (inactive) in the assay with NCI-H522; 33.8 µM (inactive) in the assay on OVCAR-5. Besides, the GI50 in the assay with RPMI-8226 is 19.8 µM (inactive); in the assay on RXF 393, 45.9 µM (inactive); with SF-268, 12.5 µM (inactive); in the assay on SF-295 it was 52.7 µM (inactive); with SF-539 it was 7.55 µM (inactive); in the assay on SN12C, 32.5 µM (inactive). Also, the GI50 with SW-620 was 9.86 µM (inactive); in the assay with U-251, 13.4 µM (inactive).

As to `Cn1c2c(c3ccccc31)CCN(CCCCN1CCN(c3ccccc3)CC1)C2=O`, the GI50 in the assay with A549 is 97.3 µM (inactive); with CCRF-CEM it was 24.5 µM (inactive); in the assay with COLO 205, 8.51 µM (inactive); with HCT-15 it was 17.2 µM; in the assay on HL-60, 7.78 µM (inactive); in the assay on HOP-62, 85.7 µM (inactive). In addition, the GI50 with HOP-92 is > 29.1 µM (inactive); with K562, 4.15 µM (inactive); in the assay with KM12, 30.1 µM (inactive); in the assay with M14, 4.58 µM (inactive); with NCI-H522 it was 42 µM (inactive); in the assay with OVCAR-5, 19.6 µM (inactive). The GI50 is 17 µM (inactive) with RPMI-8226; 10.8 µM (inactive) in the assay on RXF 393; 56 µM (inactive) in the assay on SF-268; > 88.3 µM (inactive) in the assay with SF-295; 34 µM (inactive) in the assay with SF-539; > 65.6 µM (inactive) with SN12C. In addition, the figures for the GI50 in the assay with SW-620 and in the assay on U-251 were 22.8 µM (inactive) and 34.8 µM (inactive), respectively.

For the compound `NC12Oc3cc(O)cc(O)c3C1(c1ccc(Cl)cc1)c1c(O)cc(O)cc1O2` (stereo not given), the GI50 in the assay on A549 is > 100 µM (inactive); in the assay with CCRF-CEM, 37.7 µM (inactive); in the assay on COLO 205, 97.5 µM (inactive); in the assay with HCT-15, over 100 µM; with HL-60, 27.4 µM (inactive); in the assay with HOP-62, 68.9 µM (inactive). Also, the GI50 was 25.9 µM (inactive) in the assay with HOP-92; 30.8 µM (inactive) in the assay on K562; > 100 µM (inactive) in the assay with KM12; > 100 µM (inactive) in the assay with M14; 24.7 µM (inactive) in the assay with NCI-H522; > 100 µM (inactive) in the assay with OVCAR-5. The GI50 was 33.4 µM (inactive) with RPMI-8226; 32.3 µM (inactive) with RXF 393; 69 µM (inactive) in the assay with SF-268; 96.8 µM (inactive) in the assay with SF-295; 42.8 µM (inactive) in the assay on SF-539; 21.4 µM (inactive) in the assay on SN12C. Besides, the GI50 is > 100 µM (inactive) with SW-620 and 65.8 µM (inactive) with U-251.

Consider `Cc1ccc(CN2CCN(Cc3ccc(C)o3)C(C)C2)o1` (stereo not given), for which the GI50 in the assay on A549 was > 100 µM (inactive); in the assay on CCRF-CEM, > 100 µM (inactive); in the assay on COLO 205, > 100 µM (inactive); in the assay on HCT-15, over 100 µM; with HL-60 it was > 100 µM (inactive); with HOP-62 it was > 100 µM (inactive). Moreover, the GI50 with HOP-92, in the assay with K562, in the assay on KM12, with M14, with NCI-H522 and with OVCAR-5 was > 100 µM (inactive) in each case. In addition, the GI50 in the assay with RPMI-8226, in the assay with RXF 393, in the assay with SF-268, with SF-295, in the assay with SF-539 and with SN12C was > 100 µM (inactive) throughout. In addition, the GI50 with SW-620 and in the assay on U-251 was > 100 µM (inactive) in each case.

In the case of `O=c1[nH]c(=S)[nH]n1C(=S)n1[nH]c(=S)[nH]c1=O`, the GI50 in the assay on A549 is > 100 µM (inactive); in the assay with CCRF-CEM, 71.8 µM (inactive); in the assay with COLO 205 it was > 100 µM (inactive); with HCT-15 it was over 100 µM; in the assay on HL-60 it was 45.2 µM (inactive); in the assay on HOP-62, > 100 µM (inactive). Further, the GI50 in the assay on HOP-92, in the assay with K562, in the assay with KM12, in the assay on M14, in the assay with NCI-H522 and in the assay with OVCAR-5 was > 100 µM (inactive) throughout. For the same compound, the GI50 in the assay with RPMI-8226 is 89.1 µM (inactive); with RXF 393 it was > 100 µM (inactive); in the assay on SF-268, > 100 µM (inactive); in the assay on SF-295, > 100 µM (inactive); in the assay on SF-539, > 100 µM (inactive); with SN12C, > 100 µM (inactive). The GI50 with SW-620 and in the assay with U-251 was > 100 µM (inactive) each time.

Turning to `CCOc1ccc(NC(=O)C(=O)CC(=O)c2c[n+]([O-])c3cc(C)c(C)cc3[n+]2[O-])cc1`, the GI50 in the assay with A549 is > 100 µM (inactive); in the assay with CCRF-CEM, > 100 µM (inactive); in the assay with COLO 205 it was > 100 µM (inactive); with HCT-15, over 100 µM; in the assay with HL-60 it was > 100 µM (inactive); with HOP-62 it was > 100 µM (inactive). Also, the GI50 in the assay with HOP-92, with K562, in the assay on KM12, with M14, with NCI-H522 and in the assay with OVCAR-5 was > 100 µM (inactive) each time. Besides, the GI50 in the assay with RPMI-8226, in the assay on RXF 393, in the assay with SF-268, with SF-295, in the assay on SF-539 and with SN12C was > 100 µM (inactive) each time. The GI50 with SW-620 and in the assay on U-251 was > 100 µM (inactive) throughout.

For the compound `COCC1OC(OC2C3=C(C(C)C)CCC3(C)/C=C3\C(CCC3(O)COC)C(C)C2O)C(O)C2OC3OC12OC3(C)C1CO1` (stereo not given), the GI50 in the assay on A549 was 53.8 µM (inactive); in the assay on CCRF-CEM, 24.3 µM (inactive); in the assay on COLO 205, 41.5 µM (inactive); in the assay on HCT-15 it was 25.1 µM; in the assay with HL-60, 16.3 µM (inactive); in the assay on HOP-62, 89.5 µM (inactive). The GI50 in the assay with HOP-92 is 17.2 µM (inactive); with K562, 25.1 µM (inactive); with KM12 it was 52.8 µM (inactive); with M14 it was 43.2 µM (inactive); with NCI-H522, 22.9 µM (inactive); with OVCAR-5, > 100 µM (inactive). In addition, the GI50 with RPMI-8226 is 27.2 µM (inactive); in the assay on RXF 393, 21.2 µM (inactive); in the assay on SF-268 it was 16.9 µM (inactive); in the assay on SF-295, 31.7 µM (inactive); in the assay with SF-539 it was 24.8 µM (inactive); in the assay with SN12C it was 50.9 µM (inactive). For the same compound, the GI50 with SW-620 was 34.4 µM (inactive); with U-251, 24 µM (inactive).

As to `Cn1c(=O)n(C2(C)C[Se]C2)c2ccccc21`, the GI50 was > 100 µM (inactive) in the assay on A549; > 100 µM (inactive) in the assay with CCRF-CEM; > 100 µM (inactive) in the assay on COLO 205; over 100 µM with HCT-15; > 100 µM (inactive) in the assay on HL-60; > 100 µM (inactive) in the assay on HOP-62. Further, the GI50 in the assay with HOP-92, in the assay with K562, in the assay with KM12, with M14, in the assay on NCI-H522 and in the assay with OVCAR-5 was > 100 µM (inactive) each time. In addition, the GI50 in the assay on RPMI-8226, in the assay on RXF 393, in the assay on SF-268, in the assay on SF-295, in the assay with SF-539 and in the assay on SN12C was > 100 µM (inactive) in each case. Moreover, the GI50 in the assay on SW-620 and in the assay on U-251 was > 100 µM (inactive) in each case.

`COc1cc2c(cc1OCCCC(=O)Nc1cc(C(=O)Nc3cc(C(=O)Nc4cc(C(=O)NCCCN(C)C)n(C)n4)n(C)c3)n(C)c1)N=CC1CCCN1C2=O` (stereo not given): the GI50 with A549 was 49.3 µM (inactive); in the assay with CCRF-CEM, 4.31 µM (inactive); with COLO 205, 21.2 µM (inactive); in the assay with HCT-15 it was 28.5 µM; in the assay on HL-60, 2.52 µM (inactive); in the assay with HOP-62 it was 25.8 µM (inactive). Further, the GI50 was 21.3 µM (inactive) in the assay on HOP-92; 5.2 µM (inactive) in the assay with K562; 24 µM (inactive) in the assay with KM12; 24.3 µM (inactive) with M14; 2.28 µM (inactive) in the assay on NCI-H522; 40 µM (inactive) with OVCAR-5. Also, the GI50 in the assay on RPMI-8226 was 25.7 µM (inactive); with RXF 393, 19.8 µM (inactive); in the assay with SF-268, 27.9 µM (inactive); with SF-295, 31.4 µM (inactive); with SF-539, 23.1 µM (inactive); in the assay with SN12C, 22.5 µM (inactive). For the same compound, the GI50 is 20.6 µM (inactive) in the assay on SW-620 and 23.9 µM (inactive) with U-251.

Turning to `Nc1nc(N)c2ncn(CC(CO)CC(c3ccccc3)P(=O)(O)O)c2n1` (stereo not given), the GI50 in the assay with A549 is > 100 µM (inactive); with CCRF-CEM, > 100 µM (inactive); in the assay with COLO 205 it was > 100 µM (inactive); in the assay on HCT-15 it was over 100 µM; in the assay with HL-60 it was > 100 µM (inactive); with HOP-62, > 100 µM (inactive). For the same compound, the GI50 in the assay with HOP-92 is > 100 µM (inactive); with K562, > 100 µM (inactive); in the assay on KM12, > 100 µM (inactive); with M14, 2.43 µM (inactive); in the assay on NCI-H522 it was > 100 µM (inactive); in the assay on OVCAR-5 it was > 100 µM (inactive). The GI50 in the assay on RPMI-8226, in the assay on RXF 393, in the assay with SF-268, in the assay with SF-295, in the assay on SF-539 and in the assay on SN12C was > 100 µM (inactive) throughout. Further, the GI50 in the assay on SW-620 and in the assay with U-251 was > 100 µM (inactive) each time.
